From the supplement of paper PMC11208160 come the findings set out here.
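Also: IS621 recombinase and bridge RNA in Escherichia coli cells.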

The data set is described as follows: recombinant barcode read abundance after kanamycin selection (control-corrected) (log10(CPM+1)); higher = more efficient recombination; sequences stand for … in AGTGCAGAGAAAATCGGCCAGTTTTCTCTGCCTGCAGTCCGCATGCCGT…AGATTTATGCAGCGGACTGCCTTTCTCCCAAAGTGATAAACCGGACAGTATCATGGACCGGTTTTCCCGGTAATCCGTATTTGCAAGGTTGGTTTCACT; site = the 11-nt target. The procedure, abridged: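 IS621 bridge RNA target-binding loops were paired with targets in a pooled library tested in E. coli. After co-electroporation with a donor plasmid, cells were plated in two replicates on chloramphenicol/ampicillin LB agar (control) and on chloramphenicol/ampicillin/kanamycin carrying 0.1 mM IPTG. Barcodes at recombinant junctions were counted as counts per million, averaged and control-corrected to give recombination efficiency. Values are log10(CPM+1).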
In the case of “GTCCGTCCTTGGGTTCTAACCTGTTGCGT (site GTCCGTCCTAT)”, the “recombinant barcode read abundance (log10)” value was determined as 0.504. Next, “GTCCTATCTTGGGTTCTAACCTGTTGCTA (site AGGTCTACTGT)”: 0.146. Consider “GTCCTATCTTGGGTTCTAACCTGTTGCTA (site GTCCTATCTTA)”, for which the “recombinant barcode read abundance (log10)” value was 0.656. The value for “GTCCTGTCTTGGGTTCTAACCTGTTGCCG (site GTCCTGTCTCG)” was 1.16; that for “GTCCTGTCTTGGGTTCTAACCTGTTGCCG (site GTCGTGTCTCG)” was 0.397; that for “GTCGACCCTTGGGTTCTAACCTGTTGCCT (site GTCGACCCTAG)” was 1.98. Next, “GTCGACCCTTGGGTTCTAACCTGTTGCCT (site GTCGACGCTAG)”: 0.136. Next, “GTCGCGACTTGGGTTCTAACCTGTTGCCT (site GTCGCGACTAG)”: 0.0792; “GTCGCGACTTGGGTTCTAACCTGTTGCCT (site GTCGCGCCTAG)”: 0.353; “GTCGCGACTTGGGTTCTAACCTGTTGCCT (site GTCGCGGCTAG)”: 0.145. On to “GTCGCGACTTGGGTTCTAACCTGTTGCCT (site GTCGCGTCTAG)”, for which the “recombinant barcode read abundance (log10)” value came out at 0.215.

For the sequence “GTCGGAGCTTGGGTTCTAACCTGTTGCCA (site GTCCGAACTTG)”, the “recombinant barcode read abundance (log10)” value amounted to 0.0692.

As for “GTCGGAGCTTGGGTTCTAACCTGTTGCCA (site GTCGGAGCTTG)”, the “recombinant barcode read abundance (log10)” value turned out to be 0.959. The value for “GTCGGGCCTTGGGTTCTAACCTGTTGCCT (site ATCGGGCCTAG)” was 0.0962. The value for “GTCGGGCCTTGGGTTCTAACCTGTTGCCT (site CTCGGGCCTAG)” was 0.0668. The value for “GTCGGGCCTTGGGTTCTAACCTGTTGCCT (site GTCGGGCCTAG)” was 0.686. Regarding “GTCGGGCCTTGGGTTCTAACCTGTTGCCT (site TTCGGGCCTAG)”, the “recombinant barcode read abundance (log10)” value came to 0.126.

For “GTCGTGTCTTGGGTTCTAACCTGTTGCCG (site GTCCTGTCTCG)”, the “recombinant barcode read abundance (log10)” value turned out to be 0.0845. Next, “GTCGTGTCTTGGGTTCTAACCTGTTGCCG (site GTCGTGTCTCG)”: 1.28; “GTCGTTGCTTGGGTTCTAACCTGTTGCCT (site ATCGTTGCTAG)”: 0.522; “GTCGTTGCTTGGGTTCTAACCTGTTGCCT (site CTCGTTGCTAG)”: 0.0407. Next, “GTCGTTGCTTGGGTTCTAACCTGTTGCCT (site GTCGTTGCTAG)”: 1.07; “GTCGTTGCTTGGGTTCTAACCTGTTGCCT (site TTCGTTGCTAG)”: 1.19; “GTCTAATCTTGGGTTCTAACCTGTTGCCT (site GTCTAATCTAG)”: 0.719. Next, “GTCTAATCTTGGGTTCTAACCTGTTGCCT (site GTCTCATCTAG)”: 0.271; “GTCTAATCTTGGGTTCTAACCTGTTGCCT (site GTCTGATCTAG)”: 0.174; “GTCTAATCTTGGGTTCTAACCTGTTGCCT (site GTCTTATCTAG)”: 0.0315. For the sequence “GTCTACGCTTGGGTTCTAACCTGTTGCCA (site GTCTAAGCTCG)”, the “recombinant barcode read abundance (log10)” value was determined as 0.0189. The value for “GTCTACGCTTGGGTTCTAACCTGTTGCCA (site GTCTACGCTTG)” was 0.253.

In the case of “GTCTCACCTTGGGTTCTAACCTGTTGCGG (site GTATCTCCTCC)”, the “recombinant barcode read abundance (log10)” value came to 0.094. The value for “GTCTCACCTTGGGTTCTAACCTGTTGCGG (site GTCTCACCTCC)” was 0.91.

As to “GTCTGTTCTTGGGTTCTAACCTGTTGCCT (site GACTGTTCTAG)”, the “recombinant barcode read abundance (log10)” value was 0.17. Next, “GTCTGTTCTTGGGTTCTAACCTGTTGCCT (site GCCTGTTCTAG)”: 0.071; “GTCTGTTCTTGGGTTCTAACCTGTTGCCT (site GGCTGTTCTAG)”: 0.16. The value for “GTCTGTTCTTGGGTTCTAACCTGTTGCCT (site GTCTGTTCTAG)” was 0.852. Next, “GTCTTCTCTTGGGTTCTAACCTGTTGCTT (site GTCTACTCTCA)”: 0.0691; “GTCTTCTCTTGGGTTCTAACCTGTTGCTT (site GTCTTCTCTAA)”: 0.487. On to “GTGAAGCCTTGGGTTCTAACCTGTTGCCA (site GTGAAGCCTTG)”, for which the “recombinant barcode read abundance (log10)” value came out at 0.758.

As for “GTGAAGCCTTGGGTTCTAACCTGTTGCCA (site GTGTATCCTTG)”, the “recombinant barcode read abundance (log10)” value was 0.165.

For the sequence “GTGAGAGCTTGGGTTCTAACCTGTTGCGG (site GTGAGAGCTCC)”, the “recombinant barcode read abundance (log10)” value worked out at 1.43. Consider “GTGAGAGCTTGGGTTCTAACCTGTTGCGG (site GTGAGCACTCC)”, for which the “recombinant barcode read abundance (log10)” value was 0.0453. For “GTGAGCACTTGGGTTCTAACCTGTTGCTA (site AATTAGCCTAG)”, the “recombinant barcode read abundance (log10)” value came to 0.0422.

With “GTGAGCACTTGGGTTCTAACCTGTTGCTA (site GTGAGCACTTA)”, the “recombinant barcode read abundance (log10)” value was determined as 0.337. The value for “GTGAGGACTTGGGTTCTAACCTGTTGCCT (site ATGAGGACTAG)” was 0.739. Next, “GTGAGGACTTGGGTTCTAACCTGTTGCCT (site CTGAGGACTAG)”: 0.133; “GTGAGGACTTGGGTTCTAACCTGTTGCCT (site GTGAGGACTAG)”: 1.49. The value for “GTGAGGACTTGGGTTCTAACCTGTTGCCT (site TTGAGGACTAG)” was 0.316. Take “GTGAGGACTTGGGTTCTAACCTGTTGCGT (site GTGAGGACTAC)”: the “recombinant barcode read abundance (log10)” value is 3.11. Next, “GTGAGGACTTGGGTTCTAACCTGTTGCGT (site GTGCGGACTAC)”: 0.236; “GTGAGGACTTGGGTTCTAACCTGTTGCTG (site GTGAGGACTCA)”: 2.68. The value for “GTGAGGACTTGGGTTCTAACCTGTTGCTG (site GTGTGGACTCT)” was 0.0356; that for “GTGATAGCTTGGGTTCTAACCTGTTGCGG (site GATATAGCTCC)” was 0.16.

“GTGATAGCTTGGGTTCTAACCTGTTGCGG (site GTGATAGCTCC)”: the “recombinant barcode read abundance (log10)” value is 1.12. Next, “GTGATCCCTTGGGTTCTAACCTGTTGCCT (site GAGATCCCTAG)”: 0.585; “GTGATCCCTTGGGTTCTAACCTGTTGCCT (site GTGATCCCTAG)”: 1.18. On to “GTGCACCCTTGGGTTCTAACCTGTTGCTT (site GGGCATCCTAA)”, for which the “recombinant barcode read abundance (log10)” value worked out at 0.115. The value for “GTGCACCCTTGGGTTCTAACCTGTTGCTT (site GTGCACCCTAA)” was 1.57; that for “GTGCCTGCTTGGGTTCTAACCTGTTGCCT (site GCGCATGCTAG)” was 0.039. With “GTGCCTGCTTGGGTTCTAACCTGTTGCCT (site GTGCCTGCTAG)”, the “recombinant barcode read abundance (log10)” value turned out to be 1.05.

“GTGCGCCCTTGGGTTCTAACCTGTTGCGG (site GTGCGCCCTAC)”: the “recombinant barcode read abundance (log10)” value turned out to be 0.369.

Turning to “GTGCGCCCTTGGGTTCTAACCTGTTGCGG (site GTGCGCCCTCC)”, the “recombinant barcode read abundance (log10)” value was 1.28. The value for “GTGCGCTCTTGGGTTCTAACCTGTTGCGC (site CCAGCTGCTAG)” was 0.0659; that for “GTGCGCTCTTGGGTTCTAACCTGTTGCGC (site GTGCGCTCTGC)” was 0.145. Next, “GTGGAAGCTTGGGTTCTAACCTGTTGCCT (site GAGGAAGCTAG)”: 0.316; “GTGGAAGCTTGGGTTCTAACCTGTTGCCT (site GCGGAAGCTAG)”: 0.367; “GTGGAAGCTTGGGTTCTAACCTGTTGCCT (site GGGGAAGCTAG)”: 0.262. Next, “GTGGAAGCTTGGGTTCTAACCTGTTGCCT (site GTGGAAGCTAG)”: 1.1; “GTGGATGCTTGGGTTCTAACCTGTTGCCT (site GGGGATTCTAG)”: 0.28; “GTGGATGCTTGGGTTCTAACCTGTTGCCT (site GTGGATGCTAG)”: 1.6.

“GTGGGCCCTTGGGTTCTAACCTGTTGCCT (site GTATGCCCTAG)”: the “recombinant barcode read abundance (log10)” value amounted to 0.02. The value for “GTGGGCCCTTGGGTTCTAACCTGTTGCCT (site GTGGGCCCTAG)” was 2.07. The value for “GTGGGCCCTTGGGTTCTAACCTGTTGCTG (site ATCGGCCCTCA)” was 0.302; that for “GTGGGCCCTTGGGTTCTAACCTGTTGCTG (site GTGGGCCCTCA)” was 2.73.

Consider “GTGGGCTCTTGGGTTCTAACCTGTTGCCT (site CTGGGCTCTTG)”, for which the “recombinant barcode read abundance (log10)” value is 0.0529. The value for “GTGGGCTCTTGGGTTCTAACCTGTTGCCT (site GTGGGCTCTAG)” was 2.01; that for “GTGGTAGCTTGGGTTCTAACCTGTTGCCT (site GTGGTAACTAG)” was 0.857. As for “GTGGTAGCTTGGGTTCTAACCTGTTGCCT (site GTGGTACCTAG)”, the “recombinant barcode read abundance (log10)” value was 0.209.
